Test results as given in paper PMC12951562, “SH2scan: Mapping SH2 Domain-Ligand Binding Selectivity for Inhibitors and Degraders” (Journal of Medicinal Chemistry, 2026).
Non-standard residues stand in square brackets, D forms with d. Residues, ends and D or L forms follow the SMILES beside them. pY = N[C@@H](Cc1ccc(OP(=O)(O)O)cc1)C(=O)O

Experiments:
Experiment in all cases: biochemical
Assay type in all cases: binding
GRB14 = target: T1, GRB14 (Homo sapiens, UniProt Q14449)
T1 construct: the DNA-tagged SH2 domain concentrations used in this study were <0.1 nM; made in house; host or cells: HEK293 (transient transfection; unpurified extract)
T1 sequence (Q14449 439-535 limits assumed): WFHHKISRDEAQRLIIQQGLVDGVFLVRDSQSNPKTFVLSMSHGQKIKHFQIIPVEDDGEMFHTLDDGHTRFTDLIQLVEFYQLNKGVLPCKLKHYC

PLCG2(SH2dom.N-term.) = target: T2, PLCG2(SH2dom.N-term.) (Homo sapiens, UniProt P16885)
T2 construct: SH2dom.N-term. denotes SH2 domain closest to N-terminus of protein; made in house; host or cells: HEK293 (transient transfection, unpurified extract)
T2 sequence (P16885 532-635 limits assumed): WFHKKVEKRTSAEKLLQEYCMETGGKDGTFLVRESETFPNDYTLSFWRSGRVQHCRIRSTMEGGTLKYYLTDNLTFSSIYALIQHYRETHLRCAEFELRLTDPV

CRK = target: T3, CRK (Homo sapiens, UniProt P46108)
T3 construct: the DNA-tagged SH2 domain concentrations used in this study were <0.1 nM; made in house; host or cells: HEK293 (transient transfection; unpurified extract)

CSK = target: T4, CSK (Homo sapiens, UniProt P41240)
T4 construct: the DNA-tagged SH2 domain concentrations used in this study were <0.1 nM; made in house; host or cells: HEK293 (transient transfection; unpurified extract)
T4 sequence (P41240 82-171 limits assumed): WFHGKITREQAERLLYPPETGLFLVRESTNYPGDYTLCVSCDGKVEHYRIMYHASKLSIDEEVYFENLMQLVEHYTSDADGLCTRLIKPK

SHIP1 = target: T5, SHIP1 (Homo sapiens, UniProt Q92835)
T5 construct: made in house; host or cells: HEK293 (transient transfection), unpurified extract
T5 sequence (Q92835 1-1189): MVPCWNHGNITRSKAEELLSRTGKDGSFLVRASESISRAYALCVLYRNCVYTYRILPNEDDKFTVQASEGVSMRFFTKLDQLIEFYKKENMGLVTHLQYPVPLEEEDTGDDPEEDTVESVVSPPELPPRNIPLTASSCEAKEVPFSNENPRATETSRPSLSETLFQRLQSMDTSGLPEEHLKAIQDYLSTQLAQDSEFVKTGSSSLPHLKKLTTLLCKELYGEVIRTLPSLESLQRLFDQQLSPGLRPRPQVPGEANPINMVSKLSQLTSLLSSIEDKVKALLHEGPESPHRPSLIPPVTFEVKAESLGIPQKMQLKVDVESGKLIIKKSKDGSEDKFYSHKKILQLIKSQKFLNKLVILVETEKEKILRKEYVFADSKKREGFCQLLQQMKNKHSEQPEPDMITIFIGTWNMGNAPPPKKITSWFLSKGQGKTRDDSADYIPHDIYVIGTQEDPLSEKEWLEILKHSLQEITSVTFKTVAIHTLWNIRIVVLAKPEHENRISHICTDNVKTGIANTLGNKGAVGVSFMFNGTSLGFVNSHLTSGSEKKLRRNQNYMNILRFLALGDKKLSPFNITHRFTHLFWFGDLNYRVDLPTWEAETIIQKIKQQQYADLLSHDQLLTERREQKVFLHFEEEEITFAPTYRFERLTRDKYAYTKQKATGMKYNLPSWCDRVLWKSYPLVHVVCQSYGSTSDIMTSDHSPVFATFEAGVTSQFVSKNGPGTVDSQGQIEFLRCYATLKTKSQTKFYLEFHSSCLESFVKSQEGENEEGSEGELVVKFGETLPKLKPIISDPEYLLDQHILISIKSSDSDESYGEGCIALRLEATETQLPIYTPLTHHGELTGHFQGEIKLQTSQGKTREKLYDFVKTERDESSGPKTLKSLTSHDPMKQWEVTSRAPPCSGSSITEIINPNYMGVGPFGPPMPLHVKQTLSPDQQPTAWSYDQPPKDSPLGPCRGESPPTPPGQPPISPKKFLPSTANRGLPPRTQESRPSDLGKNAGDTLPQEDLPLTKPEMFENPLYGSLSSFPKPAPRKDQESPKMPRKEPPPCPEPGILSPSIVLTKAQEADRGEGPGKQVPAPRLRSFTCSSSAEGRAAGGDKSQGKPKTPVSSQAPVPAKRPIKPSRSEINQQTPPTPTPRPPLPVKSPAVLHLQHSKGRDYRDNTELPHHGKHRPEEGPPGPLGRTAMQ

SHIP2 = target: T6, SHIP2 (Homo sapiens, UniProt O15357)
T6 construct: made in house; host or cells: HEK293 (transient transfection), unpurified extract
T6 sequence (O15357 1-1258): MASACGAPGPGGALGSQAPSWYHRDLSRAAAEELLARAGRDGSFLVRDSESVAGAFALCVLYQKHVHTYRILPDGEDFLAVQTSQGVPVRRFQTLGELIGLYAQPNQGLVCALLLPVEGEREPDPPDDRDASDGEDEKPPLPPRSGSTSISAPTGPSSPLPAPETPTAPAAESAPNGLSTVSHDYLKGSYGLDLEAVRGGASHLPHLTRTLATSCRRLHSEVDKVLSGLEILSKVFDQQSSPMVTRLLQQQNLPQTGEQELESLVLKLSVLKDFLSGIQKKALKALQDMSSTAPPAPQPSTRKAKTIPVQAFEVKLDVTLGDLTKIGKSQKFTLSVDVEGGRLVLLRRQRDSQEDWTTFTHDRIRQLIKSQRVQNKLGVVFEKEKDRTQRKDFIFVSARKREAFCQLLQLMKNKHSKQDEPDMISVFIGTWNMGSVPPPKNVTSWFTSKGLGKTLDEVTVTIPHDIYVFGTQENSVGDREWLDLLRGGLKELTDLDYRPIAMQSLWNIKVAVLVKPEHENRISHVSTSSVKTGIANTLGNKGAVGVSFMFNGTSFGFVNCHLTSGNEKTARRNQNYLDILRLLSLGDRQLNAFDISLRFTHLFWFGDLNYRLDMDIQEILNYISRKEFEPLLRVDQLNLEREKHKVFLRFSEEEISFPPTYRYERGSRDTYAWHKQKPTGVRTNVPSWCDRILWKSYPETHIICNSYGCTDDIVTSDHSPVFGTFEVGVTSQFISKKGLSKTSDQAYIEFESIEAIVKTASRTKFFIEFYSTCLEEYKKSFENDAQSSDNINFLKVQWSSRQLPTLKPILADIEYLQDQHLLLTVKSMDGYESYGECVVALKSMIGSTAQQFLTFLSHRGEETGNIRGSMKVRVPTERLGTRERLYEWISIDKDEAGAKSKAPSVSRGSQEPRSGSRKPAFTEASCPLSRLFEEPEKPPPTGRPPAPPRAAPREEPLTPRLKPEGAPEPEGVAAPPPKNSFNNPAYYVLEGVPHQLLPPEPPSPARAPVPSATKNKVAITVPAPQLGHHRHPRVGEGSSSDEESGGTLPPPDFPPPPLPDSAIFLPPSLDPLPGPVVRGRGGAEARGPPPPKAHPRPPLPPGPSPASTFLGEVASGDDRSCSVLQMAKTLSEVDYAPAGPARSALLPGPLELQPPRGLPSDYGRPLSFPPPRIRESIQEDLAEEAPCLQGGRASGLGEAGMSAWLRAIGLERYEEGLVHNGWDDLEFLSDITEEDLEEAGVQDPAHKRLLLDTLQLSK

LNK (SH2B3) = target: T7, LNK (SH2B3) (Homo sapiens, UniProt Q9UQQ2)
T7 construct: the DNA-tagged SH2 domain concentrations used in this study were <0.1 nM; made in house; host or cells: HEK293 (transient transfection, unpurified extract)

GRB7 = target: T8, GRB7 (Homo sapiens, UniProt Q14451)
T8 construct: the DNA-tagged SH2 domain concentrations used in this study were <0.1 nM; made in house; host or cells: HEK293 (transient transfection; unpurified extract)

ABL2 = target: T9, ABL2 (Homo sapiens, UniProt P42684)
T9 construct: the DNA-tagged SH2 domain concentrations used in this study were <0.1 nM; made in house; host or cells: HEK293 (transient transfection; unpurified extract)
T9 sequence (P42684 173-263 limits assumed): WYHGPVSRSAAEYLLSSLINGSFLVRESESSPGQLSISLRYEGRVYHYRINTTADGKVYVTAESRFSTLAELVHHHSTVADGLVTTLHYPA

PLCG1(SH2dom.N-term.) = target: T10, PLCG1(SH2dom.N-term.) (Homo sapiens, UniProt P19174)
T10 construct: SH2dom.N-term. denotes SH2 domain closest to N-terminus of protein; made in house; host or cells: HEK293 (transient transfection, unpurified extract)
T10 sequence (P19174 550-657 limits assumed): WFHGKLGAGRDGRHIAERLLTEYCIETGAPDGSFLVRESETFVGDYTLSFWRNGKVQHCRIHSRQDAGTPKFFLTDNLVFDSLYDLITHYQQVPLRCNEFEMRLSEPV

FES = target: T11, FES (Homo sapiens, UniProt P07332)
T11 construct: the DNA-tagged SH2 domain concentrations used in this study were <0.1 nM; made in house; host or cells: HEK293 (transient transfection; unpurified extract)
T11 sequence (P07332 460-549 limits assumed): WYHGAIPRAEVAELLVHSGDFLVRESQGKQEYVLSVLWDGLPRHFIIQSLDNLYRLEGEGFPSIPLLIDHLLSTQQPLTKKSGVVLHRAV

T3 sequence (P46108 13-118 limits assumed): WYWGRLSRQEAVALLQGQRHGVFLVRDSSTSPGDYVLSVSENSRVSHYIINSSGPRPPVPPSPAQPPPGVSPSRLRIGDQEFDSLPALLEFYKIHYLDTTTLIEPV
T8 sequence (Q14451 431-527 limits assumed): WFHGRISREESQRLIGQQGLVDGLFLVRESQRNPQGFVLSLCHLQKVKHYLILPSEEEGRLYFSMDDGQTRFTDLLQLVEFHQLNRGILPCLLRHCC
T7 sequence (Q9UQQ2 364-462 limits assumed): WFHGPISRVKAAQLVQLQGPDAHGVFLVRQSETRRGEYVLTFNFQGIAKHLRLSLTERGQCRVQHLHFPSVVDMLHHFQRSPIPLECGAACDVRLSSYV

With `CSCC[C@H](NC(=O)[C@@H](NC(=O)[C@H](CCC(=O)O)NC(=O)[C@H](Cc1ccc(OP(=O)(O)O)cc1)NC(=O)[C@H](CC(C)C)NC(=O)[C@@H]1CCCN1C(=O)[C@H](CC(=O)O)NC(=O)[C@@H]1CCCN1C(C)=O)C(C)C)C(=O)N[C@@H](CC(C)C)C(=O)N[C@@H](CCCCN)C(=O)N[C@@H](CS)C(=O)N[C@@H](Cc1c[nH]c2ccccc12)C(=O)N[C@@H](CC(=O)O)C(N)=O` (Ac-PDPL[pY]EVMLKCWD-NH2) the Kd (GRB14) was 298 ± 131 nM.

Compound `CC[C@H](C)[C@H](NC(=O)[C@@H](NC(=O)[C@H](CC(C)C)NC(=O)[C@H](Cc1ccc(OP(=O)(O)O)cc1)NC(=O)[C@H](CCCNC(=N)N)NC(=O)[C@H](CCC(N)=O)NC(=O)[C@@H]1CCCN1C(=O)[C@H](CC(=O)O)NC(C)=O)C(C)C)C(=O)N[C@@H](CCC(N)=O)C(=O)NCC(=O)N[C@@H](CC(=O)O)C(=O)N[C@@H](CCC(=O)O)C(=O)N[C@@H](CC(=O)O)C(N)=O` [Ac-DPQRpYLVIQGDED-NH2] (Ac-DPQR[pY]LVIQGDED-NH2) has a Kd (PLCG2(SH2dom.N-term.)) of 521 ± 25.4 nM.

In the case of `CC(=O)N[C@@H](CCC(=O)O)C(=O)N1CCC[C@H]1C(=O)N[C@@H](C)C(=O)N[C@@H](Cc1c[nH]cn1)C(=O)N[C@@H](C)C(=O)N[C@@H](Cc1ccc(OP(=O)(O)O)cc1)C(=O)N[C@@H](C)C(=O)N[C@@H](CCC(N)=O)C(=O)N1CCC[C@H]1C(=O)N[C@@H](CCC(N)=O)C(=O)N[C@H](C(=O)N[C@H](C(N)=O)[C@@H](C)O)[C@@H](C)O` [Ac-EPAHApYAQPQTT-NH2] (Ac-EPAHA[pY]AQPQTT-NH2), the Kd (CRK) is reported as 1520 ± 695 nM.

Work on `CC[C@H](C)[C@H](NC(C)=O)C(=O)N[C@@H](CO)C(=O)N[C@@H](C)C(=O)N[C@@H](CCSC)C(=O)N[C@@H](Cc1ccc(OP(=O)(O)O)cc1)C(=O)N[C@@H](CO)C(=O)N[C@@H](CO)C(=O)N[C@H](C(=O)N[C@@H](CCSC)C(=O)N[C@@H](CCCCN)C(N)=O)C(C)C` [Ac-ISAMpYSSVMK-NH2] (Ac-ISAM[pY]SSVMK-NH2) yielded a Kd (CSK) of 48.3 ± 8.04 nM.

`CC(=O)N[C@@H](CC(N)=O)C(=O)N[C@@H](CC(N)=O)C(=O)N[C@H](C(=O)N[C@@H](C)C(=O)N[C@@H](Cc1ccc(OP(=O)(O)O)cc1)C(=O)N[C@@H](CO)C(=O)N[C@@H](Cc1ccc(O)cc1)C(=O)N[C@@H](CC(C)C)C(=O)N[C@@H](CC(C)C)C(=O)N[C@@H](CC(N)=O)C(=O)N[C@@H](CCCNC(=N)N)C(N)=O)C(C)C` [Ac-NNVApYSYLLNR-NH2] (Ac-NNVA[pY]SYLLNR-NH2) showed a Kd (SHIP1) of 241 ± 71.8 nM and a Kd (SHIP2) of 3310 ± 622 nM.

With `CC(=O)N[C@@H](CC(N)=O)C(=O)N[C@H](C(=O)NCC(=O)N[C@@H](CC(=O)O)C(=O)N[C@@H](Cc1ccc(OP(=O)(O)O)cc1)C(=O)N[C@@H](Cc1ccc(O)cc1)C(=O)N[C@@H](CC(=O)O)C(=O)N[C@@H](CC(C)C)C(=O)N[C@@H](Cc1ccc(O)cc1)C(=O)NCC(N)=O)[C@@H](C)O` [Ac-NTGDpYYDLYG-NH2] (Ac-NTGD[pY]YDLYG-NH2) the Kd (LNK (SH2B3)) was 3220 ± 595 nM.

Compound `CC(=O)N1CCC[C@H]1C(=O)N[C@@H](CCC(=O)O)C(=O)N[C@@H](Cc1ccc(OP(=O)(O)O)cc1)C(=O)N[C@H](C(=O)N[C@@H](CC(N)=O)C(=O)N[C@@H](CCC(N)=O)C(N)=O)C(C)C` [Ac-PEpYVNQ-NH2] (Ac-PE[pY]VNQ-NH2) has a Kd (GRB7) of 4470 ± 557 nM.

With `CC[C@H](C)[C@H](NC(=O)[C@@H]1CCCN1C(=O)[C@H](CO)NC(=O)[C@H](CO)NC(C)=O)C(=O)N[C@@H](Cc1ccc(OP(=O)(O)O)cc1)C(=O)N[C@@H](CCC(=O)O)C(=O)N[C@@H](CC(=O)O)C(=O)N[C@@H](C)C(=O)N[C@@H](C)C(N)=O` [Ac-SSPIpYEDAA-NH2] (Ac-SSPI[pY]EDAA-NH2) the Kd (ABL2) was 6200 ± 584 nM.

With `CSCC[C@H](NC(=O)[C@H](CO)NC(=O)[C@H](CC(C)C)NC(=O)[C@H](CC(=O)O)NC(=O)[C@H](CC(C)C)NC(=O)[C@H](Cc1ccc(OP(=O)(O)O)cc1)NC(=O)[C@H](CCC(=O)O)NC(=O)[C@H](CCC(N)=O)NC(=O)[C@H](CC(N)=O)NC(=O)[C@H](CO)NC(=O)[C@@H](NC(C)=O)[C@@H](C)O)C(N)=O` [Ac-TSNQEpYLDLSM-NH2] (Ac-TSNQE[pY]LDLSM-NH2) the Kd (PLCG1(SH2dom.N-term.)) was 116 ± 6.69 nM.

`CC(=O)N[C@H](C(=O)N[C@@H](Cc1ccc(OP(=O)(O)O)cc1)C(=O)N[C@@H](CCC(=O)O)C(=O)N1CCC[C@H]1C(=O)N[C@H](C(=O)N[C@@H](CO)C(=O)N[C@@H](Cc1ccc(O)cc1)C(N)=O)C(C)C)C(C)C` [Ac-VpYEPVSY-NH2] (Ac-V[pY]EPVSY-NH2) was tested, and the Kd (FES) was 711 ± 170 nM.
